Experimental data reported in US20240216369A1, “THE USE OF A SPLICING MODULATOR FOR A TREATMENT SLOWING PROGRESSION OF HUNTINGTON'S DISEASE” (Novartis AG, priority 2019, published 2024).

Assays:
mHTT = experiment: Mutant and total HTT multiplex HTRF assay in Q48 HTT human embryonic stem cell line: mHTT; assay type: cell-based; conditions: Q48 HTT hESC, 48 hours
Experimental: (§1) The multiplex assay is performed in human embryonic stem cells (hESCs) which have been derived by Genea Biocells from human blastocysts of HD donors. Cells are plated at a density of 10,000 cells/well into 384-well collagen coated plates and left to adhere for 24 hours, compounds 1 to 82 are then added to cells and incubated for 48 hours (37° C., 5% CO2), cells are then lysed and the contents split into a black 384-well plate.
(§2) The black plates have a combination of HTRF labeled monoclonal antibodies added which recognize discrete areas of the HTT protein, the 2B7-Tb “donor” antibody (0.2 ng/well) recognizes a sequence at the N-terminus of the protein, an MW1-Alexa488 “acceptor 1” antibody (30 ng/well) recognizes an area in the polyQ region, whereas a MAB2166-d2 “acceptor 2” antibody (6 ng/well) recognizes a sequence beyond the polyQ region. The 2B7 antibody was obtained from Coriell (CH02024), the MW1 antibody from Millipore (MABN2427), and the MAB2166 antibody from Millipore (1HU-4C8).
(§3) These detection reagents are incubated with the cell lysate at room temperature for 4-6 hours before having their fluorescence quantified at 615 nm (donor) and 535 nm and 665 nm (acceptor 1 and 2 respectively). The donor/acceptor ratio between these signals indicates the relative quantities of mHTT and tHTT proteins. As shown in the Table 1, compounds 1 to 82 as described therein and in Table 2, had the following pIC50 values.

tHTT = experiment: Mutant and total HTT multiplex HTRF assay in Q48 HTT human embryonic stem cell line: tHTT; assay type: cell-based; conditions: Q48 HTT hESC, 48 hours
Experimental: as §1, §2, §3

Row | Compound | Rating (based on mHTT potency) (mHTT) | mHTT pIC50 (mHTT) | tHTT pIC50 (tHTT)
1 | COc1cc(-c2cn[nH]c2)cc(F)c1-c1nnc(N(C)C2CC(C)(C)NC(C)(C)C2)s1 [Compound 80, 5-(2-fluoro-6-methoxy-4-(1H-pyrazol-4-yl)phenyl)-N-methyl-N-(2,2,6,6-tetramethylpiperidin-4-yl)-1,3,4-thiadiazol-2-amine] | ** (a pIC50 value between 6 and 6.5 is indicated by two stars (**)) | 6.2465 | 6.071
2 | CN(c1ccc(-c2cc3c(=O)nc[nH]c3cc2O)nn1)C1CC(C)(C)NC(C)(C)C1 [Compound 55, 7-hydroxy-6-(6-(methyl(2,2,6,6-tetramethylpiperidin-4-yl)amino)pyridazin-3-yl)quinazolin-4(1H)-one] | *** (a pIC50 value between 6.5 and 7.0 is indicated by three stars (***)) | 6.71 | 6.7485
3 | CN(c1ccc(-c2c(O)cc(-c3ccn(C)c(=O)c3)cc2F)nn1)C1CC(C)(C)NC(C)(C)C1 [Compound 23, 4-(3-fluoro-5-hydroxy-4-(6-(methyl(2,2,6,6-tetramethylpiperidin-4-yl)amino)pyridazin-3-yl)phenyl)-1-methylpyridin-2(1H)-one] | **** (a pIC50 value between 7.0 and 7.5 is indicated by four stars (****)) | 7.1895 | 7.17
4 | Cc1cc2cc(O)c(-c3ccc(N(C)C4CC(C)(C)NC(C)(C)C4)nn3)cc2cn1 [Compound 30, 3-methyl-7-(6-(methyl(2,2,6,6-tetramethylpiperidin-4-yl)amino)pyridazin-3-yl)isoquinolin-6-ol] | **** (a pIC50 value between 7.0 and 7.5 is indicated by four stars (****)) | 7.08 | 7.0835
5 | Cc1cc(-c2ccc(-c3ccc(N(C)C4CC(C)(C)NC(C)(C)C4)nn3)c(O)c2)ccn1 [Compound 35, 2-(6-(methyl(2,2,6,6-tetramethylpiperidin-4-yl)amino)pyridazin-3-yl)-5-(2-methylpyridin-4-yl)phenol] | **** (a pIC50 value between 7.0 and 7.5 is indicated by four stars (****)) | 7.003 | 6.877
6 | CC1(C)CC(Nc2ccc(-c3cc4cc(C#N)ccc4s3)nn2)CC(C)(C)N1 [Compound 48, 2-(6-(2,2,6,6-tetramethylpiperidin-4-ylamino)pyridazin-3-yl)benzo[b]thiophene-5-carbonitrile] | *** (a pIC50 value between 6.5 and 7.0 is indicated by three stars (***)) | 6.822 | 6.9
7 | CN(c1ccc(-c2ccc3nccn3c2)nn1)C1CC(C)(C)NC(C)(C)C1 [Compound 81, 6-(imidazo[1,2-a]pyridin-6-yl)-N-methyl-N-(2,2,6,6-tetramethylpiperidin-4-yl)pyridazin-3-amine] |  | <5 | <5
8 | CN(c1nnc(-c2c(F)cc(-c3cn[nH]c3)cc2F)s1)C1CC(C)(C)NC(C)(C)C1 [Compound 45, 5-(2,6-difluoro-4-(1H-pyrazol-4-yl)phenyl)-N-methyl-N-(2,2,6,6-tetramethylpiperidin-4-yl)-1,3,4-thiadiazol-2-amine] | *** (a pIC50 value between 6.5 and 7.0 is indicated by three stars (***)) | 6.861 | 6.7715
9 | Cc1cnc2cc(-c3ccc(N(C)C4CC(C)(C)NC(C)(C)C4)nn3)c(O)cc2n1 [Compound 38, 3-methyl-7-(6-(methyl(2,2,6,6-tetramethylpiperidin-4-yl)amino)pyridazin-3-yl)quinoxalin-6-ol] | *** (a pIC50 value between 6.5 and 7.0 is indicated by three stars (***)) | 6.9735 | 7.0015
10 | CN(c1ccc(-c2ccc(-n3cccn3)cc2O)nn1)C1CC(C)(C)NC(C)(C)C1 [Compound 19, 2-(6-(methyl(2,2,6,6-tetramethylpiperidin-4-yl)amino)pyridazin-3-yl)-5-(1H-pyrazol-1-yl)phenol] | **** (a pIC50 value between 7.0 and 7.5 is indicated by four stars (****)) | 7.2235 | 7.178
11 | CN(c1ccc(-c2ccc(C3=CCNCC3)cc2O)nn1)C1CC(C)(C)NC(C)(C)C1 [Compound 61, 2-(6-(methyl(2,2,6,6-tetramethylpiperidin-4-yl)amino)pyridazin-3-yl)-5-(1,2,3,6-tetrahydropyridin-4-yl)phenol] | *** (a pIC50 value between 6.5 and 7.0 is indicated by three stars (***)) | 6.661 | 6.659
12 | CN(c1nnc(-c2ccc(-c3cnn(C)c3)cc2O)s1)C1CC(C)(C)NC(C)(C)C1 [Compound 16, 2-(5-(methyl(2,2,6,6-tetramethylpiperidin-4-yl)amino)-1,3,4-thiadiazol-2-yl)-5-(1-methyl-1H-pyrazol-4-yl)phenol] | **** (a pIC50 value between 7.0 and 7.5 is indicated by four stars (****)) | 7.3285 | 7.481
13 | CN(c1ccc(-c2cc3ccc(C#N)nc3cc2O)nn1)C1CC(C)(C)NC(C)(C)C1 [Compound 64, 7-hydroxy-6-(6-(methyl(2,2,6,6-tetramethylpiperidin-4-yl)amino)pyridazin-3-yl)quinoline-2-carbonitrile] | *** (a pIC50 value between 6.5 and 7.0 is indicated by three stars (***)) | 6.5945 | 6.5885
14 | CN(c1nnc(-c2ccc(-c3ccn(C)c(=O)c3)cc2O)s1)C1CC(C)(C)NC(C)(C)C1 [Compound 49, 4-(3-hydroxy-4-(5-(methyl(2,2,6,6-tetramethylpiperidin-4-yl)amino)-1,3,4-thiadiazol-2-yl)phenyl)-1-methylpyridin-2(1H)-one] | *** (a pIC50 value between 6.5 and 7.0 is indicated by three stars (***)) | 6.819 | 6.6665
15 | Cc1cnc2cc(-c3ccc(N(C)C4CC(C)(C)NC(C)(C)C4)nn3)c(O)cc2c1 [Compound 17, 3-methyl-7-(6-(methyl(2,2,6,6-tetramethylpiperidin-4-yl)amino)pyridazin-3-yl)quinolin-6-ol] | **** (a pIC50 value between 7.0 and 7.5 is indicated by four stars (****)) | 7.2895 | 7.424
16 | CC1(C)CC(Oc2ccc(-c3cc4ccc(O)cc4cc3O)nn2)CC(C)(C)N1 [Compound 37, 3-(6-(2,2,6,6-tetramethylpiperidin-4-yloxy)pyridazin-3-yl)naphthalene-2,7-diol] | *** (a pIC50 value between 6.5 and 7.0 is indicated by three stars (***)) | 6.98 | 7.121
17 | CN(c1ccc(-c2ccc(-c3cn[nH]c3)cc2O)nn1)C1CC(C)(C)NC(C)(C)C1 [Compound 1, 2-(6-(methyl(2,2,6,6-tetramethylpiperidin-4-yl)amino)pyridazin-3-yl)-5-(1H-pyrazol-4-yl)phenol] | ***** (a pIC50 value above 7.5 is indicated by five stars (*****)) | 7.75 | 7.8065
18 | CCc1cnc2cc(O)c(-c3ccc(N(C)C4CC(C)(C)NC(C)(C)C4)nn3)cc2c1 [Compound 56, 3-ethyl-6-(6-(methyl(2,2,6,6-tetramethylpiperidin-4-yl)amino)pyridazin-3-yl)quinolin-7-ol] | *** (a pIC50 value between 6.5 and 7.0 is indicated by three stars (***)) | 6.709 | 6.709
19 | CN(c1ccc(-c2cc3ccncc3cc2O)nn1)C1CC(C)(C)NC(C)(C)C1 [Compound 52, 6-(6-(methyl(2,2,6,6-tetramethylpiperidin-4-yl)amino)pyridazin-3-yl)isoquinolin-7-ol] | *** (a pIC50 value between 6.5 and 7.0 is indicated by three stars (***)) | 6.7625 | 6.6455
20 | CNc1ccn(-c2ccc(-c3nnc(N(C)C4CC(C)(C)NC(C)(C)C4)s3)c(O)c2)n1 [Compound 43, 2-(5-(methyl(2,2,6,6-tetramethylpiperidin-4-yl)amino)-1,3,4-thiadiazol-2-yl)-5-(3-(methylamino)-1H-pyrazol-1-yl)phenol] | *** (a pIC50 value between 6.5 and 7.0 is indicated by three stars (***)) | 6.917 | 6.852
